Values of other authors as cited in US11564931B2, “Low benzalkonium chloride bimatoprost ophthalmic compositions with effective penetration and preservation properties” (Somerset Therapeutics LLC, priority 2019, dated 2023).

Conditions: patients starting on monotherapy; Covert D et al. 2006
For `CC(C)OC(=O)CCC/C=C\C[C@@H]1[C@@H](CC[C@@H](O)CCc2ccccc2)[C@H](O)C[C@@H]1O` [latanoprost], the “Rate of adjunctive medication use” value is listed as 30.2%.
For `CC(C)OC(=O)CCC/C=C\C[C@@H]1[C@@H](/C=C/[C@@H](O)COc2cccc(C(F)(F)F)c2)[C@H](O)C[C@@H]1O` [travoprost], the “Rate of adjunctive medication use” value is listed as 22.5%.
In the case of `CCNC(=O)CCC/C=C\C[C@@H]1[C@@H](/C=C/[C@@H](O)CCc2ccccc2)[C@H](O)C[C@@H]1O` [bimatoprost, (Z)-7-[(1R, 2R, 3R, 5S)-3,5-Dihydroxy-2-[(1E, 3S)-3-hydroxy-5-phenyl-1-pentenyl]cyclopentyl]-5-N-ethylheptenamide], the “Rate of adjunctive medication use” value is given as 23.2%.
